How the values were obtained:
CETP [1] = molecular target: T1, CETP (Homo sapiens, UniProt P11597); conditions: cited from earlier work
T1 construct: endogenous in cells; host or cells: patients in Phase III clinical trials (plasma CETP)
T1 sequence (P11597 18-493): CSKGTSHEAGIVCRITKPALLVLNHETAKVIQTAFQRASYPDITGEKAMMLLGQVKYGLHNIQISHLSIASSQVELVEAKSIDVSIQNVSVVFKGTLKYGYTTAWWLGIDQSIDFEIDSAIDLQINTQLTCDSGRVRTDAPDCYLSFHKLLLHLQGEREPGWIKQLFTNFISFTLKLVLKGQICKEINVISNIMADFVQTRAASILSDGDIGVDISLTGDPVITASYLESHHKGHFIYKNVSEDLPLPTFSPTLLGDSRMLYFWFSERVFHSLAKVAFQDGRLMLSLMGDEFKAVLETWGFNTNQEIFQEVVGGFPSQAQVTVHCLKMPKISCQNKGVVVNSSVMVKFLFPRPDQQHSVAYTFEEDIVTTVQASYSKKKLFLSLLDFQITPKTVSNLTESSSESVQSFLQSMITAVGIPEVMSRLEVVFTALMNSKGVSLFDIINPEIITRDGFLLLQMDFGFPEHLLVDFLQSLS

[2] = system: endothelial-dependent vasodilatation; assay: ACh-induced endothelial-dependent vasodilatation under selective pharmacological blockade; parameters: species or system mice
Excerpt: (§1) Selective pharmacological blockade of the signaling pathways responsible for endothelial-dependent vasodilatation (Vanhoutte et al., Acta Physiol (Oxf). (2017) 219:22-96) was then used to identify the mechanism responsible for the improvement observed in Adcy9^Gt/Gt mice.

[3] = system: flow-mediated vasodilatation; assay: Flow-mediated vasodilatation under pharmacological blockade; conditions: Adcy9^Gt/Gt mice
Excerpt: as §1

CETP [4] = molecular target: T1, CETP; conditions: Phase III, with atorvastatin concomitantly vs atorvastatin alone, trial terminated; cited from earlier work
[5] = 600 mg dalcetrapib vs placebo, patients with recent ACS

Compound: CCC(CC)CC1(C(=O)Nc2ccccc2SC(=O)C(C)C)CCCCC1 [dalcetrapib]
- HDL-c (CETP [1]; [5]): marked increase
- cardiovascular events (CETP [1]; [5]): did not show a significant reduction
- efficacy relative to statins alone (CETP [1]; Phase III, trial halted): lack of efficacy

Compound: NC(=NCCC[C@H](N)C(=O)O)N[N+](=O)[O-] [L-NNA]
- ACh-induced vasodilatation ([2]; Adcy9^Gt/Gt mice): inhibited significantly
- ACh-induced vasodilatation ([2]; WT mice): inhibited significantly
- flow-mediated vasodilatation [3]: numerically reduced

Compound: CCOC(=O)N1c2ccc(C(F)(F)F)cc2[C@@H](N(Cc2cc(C(F)(F)F)cc(C(F)(F)F)c2)C(=O)OC)C[C@H]1CC [torcetrapib]
- mortality (CETP [4]): incidence of mortality

Compound: Cc1ccc(Cl)c(Nc2ccccc2C(=O)O)c1Cl [meclofenamate]
- ACh-induced vasodilatation ([2]; Adcy9^Gt/Gt mice): inhibited

Source: US20200222406A1, “METHODS FOR TREATING OR PREVENTING CARDIOVASCULAR DISORDERS AND LOWERING RISK OF CARDIOVASCULAR EVENTS” (DALCOR PHARMA UK LTD., LEATHERHEAD, ZUG BRANCH, priority 2017, published 2020)
